For the first assay, the target named is recombinant human MGAT2 (Homo sapiens (Human), UniProt Q3SYC2). Nature of the assay: Measurement of human MGAT2 inhibitory activity. In kind it is biochemical. Particulars: concentration exhibiting 50% enzyme inhibition; recombinant human MGAT2, 2-Oleoylglycerol/Oleoyl-CoA. The procedure:
A full-length human MGAT2 gene to which a Flag-tag had been added at the N-terminal was inserted into pFastBac (from Invitrogen). A recombinant baculovirus was produced in accordance with the protocol for a Bac-to-Bac baculovirus expression system (produced by Invitrogen), and Sf-9 cells were infected therewith. The cells were collected and sonicated, and then the membrane fraction was collected through centrifugation. Western blotting analysis with an anti-Flag antibody was performed for the membrane fraction to confirm expression, and the membrane fraction was used as a recombinant human MGAT2 enzyme solution.
Solutions of the compounds of the present invention in DMSO were each aliquoted into 0.2-μL portions in a 384-well polystyrene microplate produced by Corning Incorporated, and 5 μL of an enzyme solution prepared with an assay buffer (100 mmol/L phosphate buffer (pH 7.4) containing 2 mmol/L DTT) and 5 μL of a substrate solution (100 mmol/L phosphate buffer (pH 7.4), 30 μmol/L 2-Oleoylglycerol, 10 μmol/L Oleoyl-CoA) were added thereto, and the resultant was stirred and centrifuged, and incubated in a moist chamber at room temperature for 1 hour. After enzymatic reaction, 50 μL of a quenching solution (containing 0.2 μmol/L Diolein-d5, 0.4% formic acid, and 50% isopropanol) containing Internal Standard (IS) was added to terminate the reaction, and the resultant was sealed in a plate produced by Shimadzu GLC Ltd., and then stirred and centrifuged, and measurement was performed by using an electrospray ionization method with a RapidFire360 and Agilent 6550 Q-TOF mass spectrometer. Diolein as a reaction product (P) of 2-Oleoylglycerol as the substrate and an ammonium adduct ion of the IS were detected, and the peak intensity ratio, P/IS, was calculated from the peak heights to evaluate the inhibitory activity. Inhibitory activities with/without addition of enzyme were defined as Control (+)/Control (−), respectively, and the respective % inhibitions were defined as 0% inhibition and 100% inhibition. The inhibitory activity was calculated from formula below with TIBCO Spotfire (produced by TIBCO Software Inc.)
Inhibitory activity (%)=[1−{Sample−Control (−)}/{Control (+)−Control (−)}]*100 where Sample indicates a peak intensity ratio: P/IS, when the compound of the present invention was added.
Sequence of recombinant human MGAT2 (Q3SYC2 whole entry): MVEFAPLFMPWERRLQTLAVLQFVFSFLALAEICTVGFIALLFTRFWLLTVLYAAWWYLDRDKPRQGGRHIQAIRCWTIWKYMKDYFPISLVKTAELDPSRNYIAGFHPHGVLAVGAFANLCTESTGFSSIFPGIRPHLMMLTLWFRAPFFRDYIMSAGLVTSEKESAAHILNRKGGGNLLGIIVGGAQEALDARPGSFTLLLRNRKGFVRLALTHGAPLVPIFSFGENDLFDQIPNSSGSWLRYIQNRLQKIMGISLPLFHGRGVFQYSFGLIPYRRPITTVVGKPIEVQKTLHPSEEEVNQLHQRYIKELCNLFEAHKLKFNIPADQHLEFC
Regarding `Cc1ccc(-c2nn3c(c2NC(=O)CC(F)(F)F)C(=O)N[C@@]2(CCc4cc(OCC(F)(F)F)ccc42)C3)nc1` [Compound I-43], the 50% inhibitory concentration (IC50) – broadly, the point on the concentration scale where inhibition reaches its midpoint – was found to be 368 nM. The same measure, in the same setting: the value for `CCS(=O)(=O)CC(=O)Nc1c(-c2ccc(F)cn2)nn2c1C(=O)N[C@@]1(CCOc3cc(F)cc(F)c31)C2` [Compound I-118] was 3.76 nM; that for `CCOc1ccc2c(c1)CC[C@@]21Cn2nc(-c3ccc(F)c(F)c3)c(NC(=O)CS(C)(=O)=O)c2C(=O)N1` [Compound I-69] was 2.78 nM; that for `CS(=O)(=O)CC(=O)Nc1c(-c2ccc(OC(F)F)cc2)nn2c1C(=O)N[C@]1(CCc3cc(OCC(F)(F)F)ccc31)C2` [Compound I-84] was 2.51 nM. Consider `Cc1ccc(-c2nn3c(c2NC(=O)CC(F)(F)F)C(=O)N[C@]2(CCc4cc(OCC(F)(F)F)ccc42)C3)nc1` [Compound I-39], for which the IC50 was found to be 248 nM.

Consider `CCCCCc1nn2c(c1NC(=O)CS(C)(=O)=O)C(=O)N[C@@]1(CCc3cc(OCC)ccc31)C2` [Compound I-104], for which the IC50 was 24.7 nM. Consider `CS(=O)(=O)CC(=O)Nc1c(-c2ccc(F)cn2)nn2c1C(=O)N[C@]1(CCOc3cc(F)cc(F)c31)C2` [Compound I-150], for which the IC50 was 11.3 nM. In the case of `COc1ccc(-c2nn3c(c2NC(=O)CS(C)(=O)=O)C(=O)N[C@@]2(CCc4cc(OCC(F)(F)F)ccc42)C3)cc1` [Compound I-26], the IC50 was found to be 20.1 nM.

For `CCS(=O)(=O)CC(=O)Nc1c(-c2ccc(C)cn2)nn2c1C(=O)N[C@@]1(CCc3cc(F)cc(F)c31)C2` [Compound I-122], the IC50 stood at 21.4 nM. Still for that read-out and setting: to `CS(=O)(=O)CC(=O)Nc1c(-c2ccc(OC(F)(F)F)cc2)nn2c1C(=O)N[C@]1(CCc3cc(OCC(F)(F)F)ccc31)C2` [Compound I-83] belongs 4.37 nM; to `CS(=O)(=O)CC(=O)Nc1c(-c2ccc(F)cc2)nn2c1C(=O)N[C@@]1(CCOc3cc(F)cc(F)c31)C2` [Compound I-125], 2.8 nM.

For `N#Cc1ccc(-c2nn3c(c2NC(=O)C2CS(=O)(=O)C2)C(=O)N[C@@]2(CCc4cc(OCC(F)(F)F)ccc42)C3)nc1` [Compound I-15], the half-maximal inhibitory concentration (IC50) came out at 2.56 nM. On the same count and under the same terms, to `Cc1ccc(-c2nn3c(c2NC(=O)CS(C)(=O)=O)C(=O)N[C@]2(CCc4cc(OCCCC(F)(F)F)ccc42)C3)nc1` [Compound I-75] belongs 1.47 nM; to `CCOc1ccc2c(c1)CC[C@]21Cn2nc(-c3ccc(F)cc3)c(NC(=O)CS(C)(=O)=O)c2C(=O)N1` [Compound I-116], 6.72 nM. On to `CS(=O)(=O)CC(=O)Nc1c(-c2cc(F)cc(F)c2)nn2c1C(=O)N[C@@]1(CCc3cc(OCC(F)(F)F)ccc31)C2` [Compound I-50], for which the IC50 amounted to 2.53 nM. For `CS(=O)(=O)CC(=O)Nc1c(-c2ccc(Cl)c(F)c2)nn2c1C(=O)N[C@@]1(CCc3cc(F)cc(F)c31)C2` [Compound I-138], the IC50 came out at 3.55 nM. Regarding `CCCCCc1nn2c(c1NC(=O)CS(C)(=O)=O)C(=O)N[C@]1(CCc3cc(OCC)ccc31)C2` [Compound I-115], the IC50 is 14.5 nM. The same measure, in the same setting: the value for `CS(=O)(=O)CC(=O)Nc1c(-c2ccccn2)nn2c1C(=O)N[C@]1(CCc3cc(OCC(F)(F)F)ccc31)C2` [Compound I-18] was 3.6 nM; that for `CS(=N)(=O)CC(=O)Nc1c(-c2ccc(Cl)c(F)c2)nn2c1C(=O)N[C@@]1(CCc3cc(OCC(F)(F)F)ccc31)C2` (some centres unmarked) [Compound I-73] was 2.82 nM; that for `CNS(=O)(=O)CC(=O)Nc1c(-c2ccc(C#N)cn2)nn2c1C(=O)N[C@]1(CCc3cc(OCC(F)(F)F)ccc31)C2` [Compound I-11] was 1.08 nM. Consider `CS(=O)(=O)CC(=O)Nc1c(-c2ccc(Cl)cn2)nn2c1C(=O)N[C@]1(CCc3cc(OCC(F)(F)F)ccc31)C2` [Compound I-59], for which the IC50 was determined as 0.48 nM.

Regarding `CS(=O)(=O)CC(=O)Nc1c(-c2ccccc2)nn2c1C(=O)N[C@]1(CCc3cc(OCC(F)(F)F)ccc31)C2` [Compound I-2], the IC50 was 6.6 nM.

Turning to `CCCCCc1nn2c(c1NC(=O)CS(C)(=O)=O)C(=O)N[C@]1(CCc3cc(OCC(F)(F)F)ccc31)C2` [Compound I-95], the IC50 was found to be 1.48 nM. On the same count and under the same terms, the value for `CS(=O)(=O)CC(=O)Nc1c(-c2ccc(C#N)cn2)nn2c1C(=O)N[C@]1(CCc3cc(OCC(F)(F)F)ccc31)C2` [Compound I-4] was 1.93 nM. Same read-out and setting: the value for `CC(C)c1ccc(-c2nn3c(c2NC(=O)CS(C)(=O)=O)C(=O)N[C@]2(CCc4cc(OCC(F)(F)F)ccc42)C3)cc1` [Compound I-97] was 3.51 nM; that for `Cc1c(F)cc(-c2nn3c(c2NC(=O)CS(C)(=O)=O)C(=O)N[C@]2(CCc4cc(OCC(F)(F)F)ccc42)C3)cc1F` [Compound I-101] was 1.36 nM. The same measure, in the same setting: the value for `N#Cc1ccc(-c2nn3c(c2NC(=O)c2ccno2)C(=O)N[C@]2(CCc4cc(OCC(F)(F)F)ccc42)C3)nc1` [Compound I-8] was 1.02 nM. With `CS(=O)(=O)CC(=O)Nc1c(CCC(F)(F)F)nn2c1C(=O)N[C@]1(CCc3cc(OCC(F)(F)F)ccc31)C2` [Compound I-102], the IC50 came out at 5.65 nM. As to `CS(=O)(=O)CC(=O)Nc1c(-c2ccc(Cl)c(F)c2)nn2c1C(=O)N[C@@]1(CCOc3cc(F)cc(F)c31)C2` [Compound I-144], the half-maximal inhibitory concentration (IC50) came out at 1.4 nM. Still for that read-out and setting: the value for `Cc1ccccc1-c1nn2c(c1NC(=O)CS(C)(=O)=O)C(=O)N[C@]1(CCc3cc(OCC(F)(F)F)ccc31)C2` [Compound I-78] was 88.3 nM; that for `CCOc1ccc2c(c1)CC[C@@]21Cn2nc(-c3ccc(F)cc3)c(NC(=O)CS(C)(=O)=O)c2C(=O)N1` [Compound I-68] was 4.04 nM. Same read-out and setting: to `CC(C)(O)c1ccc(-c2nn3c(c2NC(=O)CS(C)(=O)=O)C(=O)N[C@@]2(CCc4cc(OCC(F)(F)F)ccc42)C3)cc1` [Compound I-37] belongs 21.2 nM.

As for `N#Cc1ccc(-c2nn3c(c2NC(=O)C2CS(=O)(=O)C2)C(=O)N[C@]2(CCc4cc(OCC(F)(F)F)ccc42)C3)nc1` [Compound I-10], the IC50 came to 1.91 nM. On the same count and under the same terms, the value for `CCCCCc1nn2c(c1NC(=O)CS(C)(=O)=O)C(=O)N[C@@]1(CCc3cc(OCC(F)(F)F)ccc31)C2` [Compound I-47] was 2.73 nM. With `CS(=N)(=O)CC(=O)Nc1c(-c2ccc(C(F)(F)F)cc2)nn2c1C(=O)N[C@@]1(CCc3cc(OCC(F)(F)F)ccc31)C2` (some centres unmarked) [Compound I-112], the IC50 is 3.96 nM. Consider `CS(=O)(=O)CC(=O)Nc1c(-c2ccc(C#N)c(F)c2)nn2c1C(=O)N[C@]1(CCc3cc(OCC(F)(F)F)ccc31)C2` [Compound I-99], for which the IC50 was 1.28 nM. In the case of `CS(=O)(=O)CC(=O)Nc1c(-c2ccccc2)nn2c1C(=O)N[C@@]1(CCc3cc(OCC(F)(F)F)ccc31)C2` [Compound I-1], the IC50 is 14 nM. As to `CS(=O)(=O)CC(=O)Nc1c(CCC2CC2)nn2c1C(=O)N[C@]1(CCOc3cc(OCC(F)(F)F)ccc31)C2` [Compound I-110], the IC50 was 2.14 nM.

As for `CS(=O)(=O)CC(=O)Nc1c(-c2ccc(F)c(F)c2)nn2c1C(=O)N[C@]1(CCOc3cc(OCC(F)(F)F)ccc31)C2` [Compound I-71], the IC50 turned out to be 1.8 nM.

Still in this assay, the particulars now being: concentration exhibiting 50% enzyme inhibition; recombinant human MGAT2, 2-Oleoylglycerol/Oleoyl-CoA; listed as 1-62.
Consider `CS(=O)(=O)CC(=O)Nc1c(CCCC(F)(F)F)nn2c1C(=O)NC1(CCc3cc(OCC(F)(F)F)ccc31)C2` (single isomer, unassigned) [Compound I-62], for which the IC50 was 1.39 nM.

Still in this assay, the particulars now being: concentration exhibiting 50% enzyme inhibition; recombinant human MGAT2, 2-Oleoylglycerol/Oleoyl-CoA; listed as 1-63.
In the case of `CS(=O)(=O)CC(=O)Nc1c(CCCC(F)(F)F)nn2c1C(=O)NC1(CCc3cc(OCC(F)(F)F)ccc31)C2` (single isomer, unassigned) [Compound I-63], the IC50 amounted to 1.24 nM.

The values above are taken from patent publication US12227509B2, “Dihydropyrazolopyrazinone derivative having MGAT2 inhibitory activity” (Shionogi & Co., Ltd., priority 2019, dated 2025).
